The values that follow come from patent US9125939B2, “Carbostyril derivatives and mood stabilizers for treating mood disorders” (Otsuka Pharmaceutical Co., Ltd., priority 2003, dated 2015).

The test system of series [1] is acute mania in adolescents with bipolar disorder. Kind of series: double-blind, randomized, placebo-controlled study as adjunctive treatment to divalproex for adolescent mania (Examples 7 and 8). It is filed as in vivo, human.
The test system of series [2] is acute manic or mixed bipolar episodes. Particulars: cotherapy vs monotherapy.
[3] abbreviates: DVP + about 10 mg/day, 6 weeks, vs DVP+placebo.

Regarding `O=C1CCc2ccc(OCCCCN3CCN(c4cccc(Cl)c4Cl)CC3)cc2N1` [aripiprazole, 7-{4-[4-(2,3-dichlorophenyl)-1-piperazinyl]butoxy}-3,4-dihydro-2(1H)-quinolinone], in series [1] (setting [3]), the YMRS response rate entry is listed as “significantly greater” and the “reduction in YMRS scores from baseline to endpoint” value was “greater reduction”. Further, in series [1] (DVP combination vs DVP+placebo), the “Sedation, rated as mild or moderate” value is reported as “more common” and the “safety measures, group differences from baseline to endpoint” value is given as “No significant group differences”. In addition, in series [1] (treatment of mania), the “tolerability in combination with DVP” value is reported as “well tolerated”. In addition, in series [2], the HAMD-21 total scores entry is “total scores more than monotherapy”.
